ΔTm, KD and binding data for three molecules are collected here from PMC8931161 (2022).

The ΔTm is the shift of the melting midpoint relative to a reference. By KD is commonly meant the equilibrium constant for the complex coming apart. A higher KD goes with a looser complex.

The structures appear in SMILES notation.

The test system of assay [1] is PQS-675-Mut-FRET (RNA, single strand) GAGCGAGCGGCCUGCAGAGACAUGAG
The experiment in a line: FRET melting. The settings on record: 150 mM K+; 10 mM Tris-HCl pH 7.5; 1 µM PDS, 200 nM RNA; derived from two Tm (38.33, 38.03).

Assay [2] relates to PQS-675-WT (RNA, G4) GGGCGGGCGGCCUGCAGGGACAUGGG
The experiment in a line: CD melting at 264 nm. Conditions: 10 mM Tris-HCl pH 7.5, 5 µM RNA, PDS concentration not stated.

Assay [3] relates to PQS-675-Mut-biotin (RNA, single strand) GAGCGAGCGGCCUGCAGAGACAUGAG
The experiment in a line: bio-layer interferometry. The settings on record: K+ (folded in 150 mM KCl); PBST (PBS, 0.01% Tween-20), 25 °C; PDS 0.5-8 µM; 1:1 model; RNA immobilised. For orientation: Biolayer interferometry detects binding as a change in optical thickness at a sensor tip.

Assay [4] has as its system PQS-675-WT-FRET (RNA, G4) GGGCGGGCGGCCUGCAGGGACAUGGG
Briefly: FRET melting. The settings on record: 10 mM Tris-HCl pH 7.5, 1 µM PDS, 200 nM RNA.

Assay [5] has as its system PQS-675-WT-biotin (RNA, G4) GGGCGGGCGGCCUGCAGGGACAUGGG
The experiment in a line: bio-layer interferometry. The settings on record: K+ (folded in 150 mM KCl); PBST (PBS, 0.01% Tween-20), 25 °C; PDS 0.5-8 µM; 1:1 model; RNA immobilised.

For assay [6], the system named is PQS-675-WT (RNA, G4) GGGCGGGCGGCCUGCAGGGACAUGGG
Briefly: fluorescence light-up. The settings on record: 150 mM K+, 10 mM Tris-HCl pH 7.5, 2 µM RNA.

Assay [7] concerns PQS-675-Mut (RNA, single strand) GAGCGAGCGGCCUGCAGAGACAUGAG
Briefly: fluorescence light-up. Conditions: 150 mM K+, 10 mM Tris-HCl pH 7.5, 2 µM RNA.

Turning to `NCCOc1cc(C(=O)Nc2cc(OCCN)c3ccccc3n2)nc(C(=O)Nc2cc(OCCN)c3ccccc3n2)c1`, the ΔTm in assay [1] is -0.30 °C; in assay [2] (150 mM K+, derived from two Tm (70.00, 74.00)), 4.00 °C; in assay [2] (150 mM Li+, derived from two Tm (64.00, 64.00)), 0.00 °C; in assay [4] (150 mM K+, derived from two Tm (74.00, 77.48)), 3.48 °C; in assay [4] (150 mM Li+, derived from two Tm (63.27, 65.71)), 2.44 °C. Also, the equilibrium dissociation constant (KD) in assay [3] turned out to be 3327 ± 0.07 nM; in assay [5], 604.9 ± 2.84 nM.

Regarding `Cc1ccc2c(c1)sc(-c1ccc(N(C)C)cc1)[n+]2C`, the binding result in assay [6] (2 µM ThT) is reported as “yes”; in assay [7] (2 µM ThT, decreased but still strong, non-specific), “yes”.

As for `CCc1c(C)c2cc3nc(cc4nc(cc5c(CC)c(C)c(cc1[nH]2)n5C)C(C)=C4CCC(=O)O)C(CCC(=O)O)=C3C`, the binding entry in assay [6] (2 µM NMM) is “yes”; in assay [7] (2 µM NMM, intensity decreased) it was “weak”.
